Results on 1 molecule are retold here after patent US11819492B2, “Natural product derivatives for inhibiting cellular necroptosis, ferroptosis and oxytosis” (Institut National de la Sante et de la Recherche Medicale …, priority 2016, dated 2023).

Each structure is given as a SMILES string.

For data set [1], the system named is Murine hippocampal neuronal cell line HT22. The data set can be described thus: L-glutamate-induced oxytosis in HT22 cells, MTS viability assay. It is filed as cell-based. The settings on record: 10 mM L-glutamate, 24 hours, FIG. 14. The protocol:
Murine hippocampal neuronal cell line HT22 was treated with 10 mM of (L)-glutamate (oxytosis initiator) or 1 μM erastin (ferroptosis initiator).
Cells were then incubated at 37° C., 5% CO2 for 24 hours before performing MTS viability assay. Cell viability was monitored using CellTiter 96® AQueous Non-Radioactive Cell Proliferation Assay (Promega, Fitchburg, WI, USA), based on the water-soluble tetrazolium compound MTS (3-[4,5-dimethylthiazol-2-yl]-5-[3-carboxymethoxy-phenyl]-2-[4-sulfophenyl]-2H-tetrazolium, inner salt) according to the manufacturers instructions.
(Formazan colour is commonly taken as a measure of viable cells.)

Data set [2] relates to Jurkat FADD-deficient I 2.1 cells. Nature of the data set: Hallmarks of TNF-α-induced necroptosis (plasma membrane permeabilization, intracellular ATP) in Jurkat FADD-deficient cells. It is filed as cell-based, human. The settings on record: 0-50 μM, TNF-α 10 ng/ml, 24 hours. As to the method: Cells untreated by TNF-α are used as control (light grey curves). Cells were incubated at 37° C., 5% CO2 for 24 hours before performing the measurements of both plasma membrane permeabilization and intracellular ATP levels. Dead cells were detected by FACS analysis of Propidium Iodide-stained nuclei (FIG. 2). ATP Quantification is performed using the CellTiter-Glo® Luminescent Cell Viability Assay. The luminescent signal produced by a luciferase reaction is proportional to the amount of ATP present and the amount of ATP is directly proportional to the number of metabolically active cells (n=4) (FIG. 3).

In data set [3] the test system is hRPE-1 cells. The data set can be described thus: Cytotoxicity on human retinal pigment epithelial cell line (MTS). As to conditions: 0-50 μM tested, 24 hours, FIG. 5. It is filed as cell-based. The text has this:
A colorimetric MTS assay was used to calculate the percentage of cell viability.

The test system of data set [4] is rat embryonic myoblastic H9C2 cells. The data set can be described thus: H2O2-induced necrosis, LDH release assay. The format is cell-based. As to conditions: 10 μM, 2 hours pretreatment, 800 μM H2O2 for 24 hours, FIG. 17. The protocol: The rat embryonic myoblastic H9C2 cells were cultured at 10,000 cells/well in 96-well-plates for 24 hours at 37° C./5% CO2. […] LB corresponds to cells treated with a lysis buffer (100% of cell death). Cell cytotoxicity was determined by a colorimetric assay quantitatively measuring lactate dehydrogenase (LDH) released […].
In general terms: LDH in the medium is a marker of cell lysis.

Data set [5] has as its system 456 kinases, including eight lipid kinases. Nature of the data set: KINOMEscan Max competition binding assay, profiling against 456 kinases. Also noted: species or system human. The settings on record: poor affinity = over 30% of kinase still on the affinity matrix, FIG. 8. The protocol:
This experimental approach quantitatively measures the ability of a compound to compete with an immobilized, active-site directed ligand. […] The ability of compound 1 to compete with the immobilized ligand is measured via quantitative PCR of the DNA tag. The codes reported on the FIG. 8 indicate the subclasses of protein kinases: CMGC for CDKs, MAP kinases, GSK and CDK-like kinases; AGC for Protein kinase A, G, and C families (PKA, PKC, PKG); CAMK for Ca2+/calmodulin-dependent protein kinases; CK1, Cell Kinases 1 (originally known as Casein Kinase 1); STE, STE Kinases (Homologs of yeast STErile kinases); TKL, Tyrosine Kinases-Like; TK, Tyrosine Kinases. Each kinase tested in the assay panel is marked with a circle. The hit kinase reported, RIPK1, is marked with a black circle.

The test system of data set [6] is Human retinal pigment epithelial cell line, ARPE-19. The data set can be described thus: NaIO3-induced retinal cell death (cellular model of AMD), MTS viability assay. It is filed as cell-based. As to conditions: subtoxic concentration (+/−20 μM), 10 mM NaIO3, 24 hours, P<0.001. As to the method:
At it was previously shown (Hanus et al. Cell Death Discov. 2016, 2, 16054), NaIO3 is an oxidizing agent that induces necroptosis in retinal pigment epithelial cell line that can be inhibited by 200 μM of necrostatin-1. […] Human retinal pigment epithelial cell line, ARPE-19, was treated with 10 mM of NaIO3 as cellular model of age-related macular degeneration (AMD). […] Cells were then incubated at 37° C., 5% CO2 for 24 hours before performing MTS viability assay. Cell viability was monitored using CellTiter 96® AQueous Non-Radioactive Cell Proliferation Assay (Promega, Fitchburg, WI, USA), based on the water-soluble tetrazolium compound MTS (3-[4,5-dimethylthiazol-2-yl]-5-[3-carboxymethoxy-phenyl]-2-[4-sulfophenyl]-2H-tetrazolium, inner salt) according to the manufacturers instructions.

The subject of data set [7] is Jurkat FADD-deficient I 2.1 cell line. Nature of the data set: TNF-α-induced necroptosis in Jurkat FADD-deficient cells, MTS viability assay. It is filed as cell-based, human. The settings on record: TNF-α 10 ng/ml, 24 hours. The text has this:
TNF-α can induce necroptosis in Jurkat cells (human T lymphocytes) when FADD is deleted. This model was used to screen various libraries of chemical compounds for characterization of new inhibitors of cellular necroptosis. Details on this cell-based assay can be found in Miao and Degterev (Methods Mol. Biol. 2009, 559, 79-93). The Jurkat FADD-deficient I 2.1 cell line used was purchased from ATCC and was maintained in RPMI 1640 medium (Gibco) containing Glutamax and 15% fetal calf serum (Life Technology). Necroptosis was induced by addition of 10 ng/ml of human recombinant TNF-α (Life Technology). Necrostatin-1 (Nec-1, Enzo Life Sciences) was used as model necroptosis inhibitor. Cells were maintained in 75 cm^2 flask and passed every 2 or 3 days. Chemical collections analysed were formatted in 96-well plates with 80 molecules per plate at 10 mM in 100% DMSO. […]
Cells were incubated at 37° C., 5% CO2 for 24 hours before performing MTS viability assay. Cell viability was monitored using CellTiter 96® AQueous Non-Radioactive Cell Proliferation Assay (Promega, Fitchburg, WI, USA), based on the water-soluble tetrazolium compound MTS (3-[4,5-dimethylthiazol-2-yl]-5-[3-carboxymethoxy-phenyl]-2-[4-sulfophenyl]-2H-tetrazolium, inner salt) according to the manufacturers instructions.

Consider `COc1cc(O)c2c(c1)OC(O)(c1ccc(OCc3ccccc3)cc1)CC2=O` (stereo not drawn) [compound 1], for which the “concentration that protects cells from death induced by L-glutamate” value in data set [1] was over 25 µM. Besides, the “plasma membrane permeabilization induced by TNF-α (Propidium Iodide, FACS)” value in data set [2] (FIG. 2) is recorded as “inhibits”. Besides, in data set [2] (FIG. 3), the “ATP depletion induced by TNF-α (CellTiter-Glo)” value is “inhibits”. Besides, the “cytotoxicity towards hRPE-1 cells” value in data set [3] is reported as “not cytotoxic”. Besides, the “protection from death induced by H2O2 (LDH release)” value in data set [4] is “protects from death induced by H2O2”. The “specificity for RIPK1 among the large panel of tested kinases” value in data set [5] is “high specificity”. Moreover, the “protection from death induced by NaIO3” value in data set [6] was “protects significantly”. Moreover, in data set [7] (0.01-50.00 μM, FIG. 1), the “protection of cell viability from death induced by TNF-α” value was “protects cells from death induced by TNF-α”. In addition, the “necroptosis inhibition in the library screening” value in data set [7] (screening at 10 μM) is given as “very efficient necroptosis inhibitor”.
